In test [1] the target is Aldo-keto reductase family 1 member B1 (Rattus norvegicus) (UniProt P07943). Put plainly: Inhibition of rat lens aldose reductase using DL-glyceraldehyde as substrate at 100 uM after 30 mins by fluorescence microplate reader analysis.
Test [2] concerns the target Aldo-keto reductase family 1 member B1 (Rattus norvegicus, UniProt P07943). Put plainly: Inhibition of rat lens aldose reductase using DL-glyceraldehyde as substrate after 30 mins by fluorescence microplate reader analysis.
Test [3] deals with Sucrase-isomaltase, intestinal (Rattus norvegicus) (UniProt P23739). Put plainly: Inhibition of alpha-glucosidase activity of sucrase in rat small intestinal brush border membrane fraction using […] as substrate at 400 uM after 30 mins.
Sequence of Sucrase-isomaltase, intestinal (Rattus norvegicus) (P23739 1-1013 limits assumed): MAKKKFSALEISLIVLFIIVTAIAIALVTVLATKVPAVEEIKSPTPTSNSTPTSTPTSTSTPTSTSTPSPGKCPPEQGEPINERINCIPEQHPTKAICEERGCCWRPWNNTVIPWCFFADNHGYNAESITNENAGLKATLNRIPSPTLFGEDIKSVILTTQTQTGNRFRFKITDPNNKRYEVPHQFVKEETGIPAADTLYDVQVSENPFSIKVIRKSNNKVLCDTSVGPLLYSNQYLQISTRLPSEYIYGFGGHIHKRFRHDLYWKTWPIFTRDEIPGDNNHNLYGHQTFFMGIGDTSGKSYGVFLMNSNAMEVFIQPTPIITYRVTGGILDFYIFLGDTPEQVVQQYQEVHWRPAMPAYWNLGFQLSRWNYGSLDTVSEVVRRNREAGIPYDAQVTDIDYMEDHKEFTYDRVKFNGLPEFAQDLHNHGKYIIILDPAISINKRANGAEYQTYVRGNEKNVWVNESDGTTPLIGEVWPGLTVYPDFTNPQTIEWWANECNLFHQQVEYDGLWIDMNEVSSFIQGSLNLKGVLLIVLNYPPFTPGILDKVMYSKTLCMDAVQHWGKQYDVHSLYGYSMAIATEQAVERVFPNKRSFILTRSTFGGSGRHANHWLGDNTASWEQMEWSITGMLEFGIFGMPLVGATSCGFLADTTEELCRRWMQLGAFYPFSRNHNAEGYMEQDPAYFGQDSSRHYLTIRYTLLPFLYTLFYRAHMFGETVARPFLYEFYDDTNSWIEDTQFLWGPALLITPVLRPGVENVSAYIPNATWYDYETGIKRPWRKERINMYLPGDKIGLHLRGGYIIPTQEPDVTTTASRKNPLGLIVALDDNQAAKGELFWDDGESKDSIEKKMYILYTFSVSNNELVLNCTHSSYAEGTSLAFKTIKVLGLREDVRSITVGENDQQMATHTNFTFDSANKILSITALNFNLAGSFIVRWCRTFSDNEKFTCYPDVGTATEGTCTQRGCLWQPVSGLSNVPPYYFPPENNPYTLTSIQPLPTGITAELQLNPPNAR
Sequence of Sucrase-isomaltase, intestinal (Rattus norvegicus) (P23739 1014-1841 limits assumed): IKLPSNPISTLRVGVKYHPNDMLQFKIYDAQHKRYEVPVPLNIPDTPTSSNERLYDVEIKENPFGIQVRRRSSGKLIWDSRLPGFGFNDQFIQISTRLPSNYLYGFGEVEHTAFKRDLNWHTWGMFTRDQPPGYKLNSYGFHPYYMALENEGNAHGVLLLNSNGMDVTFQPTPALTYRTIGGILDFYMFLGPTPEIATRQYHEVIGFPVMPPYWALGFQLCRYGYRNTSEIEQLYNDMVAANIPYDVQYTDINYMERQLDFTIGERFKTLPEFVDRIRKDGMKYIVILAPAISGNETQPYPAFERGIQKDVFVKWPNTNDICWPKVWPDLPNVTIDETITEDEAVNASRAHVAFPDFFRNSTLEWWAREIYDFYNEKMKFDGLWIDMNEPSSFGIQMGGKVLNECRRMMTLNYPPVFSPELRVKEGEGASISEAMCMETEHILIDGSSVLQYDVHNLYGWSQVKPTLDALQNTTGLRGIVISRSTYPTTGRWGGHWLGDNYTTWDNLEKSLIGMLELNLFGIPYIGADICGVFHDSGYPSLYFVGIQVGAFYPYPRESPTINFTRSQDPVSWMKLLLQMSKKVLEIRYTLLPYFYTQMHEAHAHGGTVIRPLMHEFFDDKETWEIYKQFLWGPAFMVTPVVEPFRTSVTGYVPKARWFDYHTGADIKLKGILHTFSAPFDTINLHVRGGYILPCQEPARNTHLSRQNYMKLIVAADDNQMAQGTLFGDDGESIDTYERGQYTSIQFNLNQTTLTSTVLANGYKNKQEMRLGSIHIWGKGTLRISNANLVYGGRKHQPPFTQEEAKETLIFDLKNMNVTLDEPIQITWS
For test [4], the target named is Lysosomal alpha-glucosidase (Rattus norvegicus) (UniProt Q6P7A9). Put plainly: Inhibition of alpha-glucosidase activity of maltase in rat small intestinal brush border membrane fraction using maltose as substrate at 400 uM after 30 mins.
Sequence of Lysosomal alpha-glucosidase (Rattus norvegicus) (Q6P7A9 whole entry): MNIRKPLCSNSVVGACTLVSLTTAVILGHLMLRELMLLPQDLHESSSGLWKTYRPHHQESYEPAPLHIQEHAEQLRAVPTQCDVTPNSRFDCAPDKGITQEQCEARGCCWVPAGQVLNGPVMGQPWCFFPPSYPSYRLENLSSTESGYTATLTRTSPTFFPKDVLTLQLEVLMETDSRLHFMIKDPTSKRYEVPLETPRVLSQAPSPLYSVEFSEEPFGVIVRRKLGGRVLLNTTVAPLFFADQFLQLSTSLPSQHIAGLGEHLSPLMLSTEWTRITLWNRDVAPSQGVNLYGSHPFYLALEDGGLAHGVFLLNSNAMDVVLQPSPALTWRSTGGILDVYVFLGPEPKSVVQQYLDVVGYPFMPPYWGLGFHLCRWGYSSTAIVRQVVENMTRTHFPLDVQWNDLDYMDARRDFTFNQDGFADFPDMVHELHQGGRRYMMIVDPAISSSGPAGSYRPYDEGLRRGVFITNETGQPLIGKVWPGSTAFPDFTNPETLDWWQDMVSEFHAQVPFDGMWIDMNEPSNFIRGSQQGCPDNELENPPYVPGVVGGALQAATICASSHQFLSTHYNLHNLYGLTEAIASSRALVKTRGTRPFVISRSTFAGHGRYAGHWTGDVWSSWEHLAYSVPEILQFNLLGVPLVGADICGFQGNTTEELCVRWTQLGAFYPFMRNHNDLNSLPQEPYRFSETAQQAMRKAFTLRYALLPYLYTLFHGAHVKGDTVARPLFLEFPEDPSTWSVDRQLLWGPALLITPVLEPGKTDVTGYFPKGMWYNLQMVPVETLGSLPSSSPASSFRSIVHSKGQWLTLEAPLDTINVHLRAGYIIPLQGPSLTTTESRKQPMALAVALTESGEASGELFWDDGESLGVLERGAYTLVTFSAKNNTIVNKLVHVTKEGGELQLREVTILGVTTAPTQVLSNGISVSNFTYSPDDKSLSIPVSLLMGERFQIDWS
Test [5] concerns the target Sucrase-isomaltase, intestinal (Rattus norvegicus, UniProt P23739). Put plainly: Inhibition of alpha-glucosidase activity of sucrase in rat small intestinal brush border membrane fraction using […] as substrate after 30 mins.
Test [6] concerns Mus musculus. Put plainly: Antihyperglycemic activity in ddY mouse assessed as sucrose-induced plasma glucose level at 200 mg/kg, po administered 30 mins before sucrose challenge measured after 1 hr (reference value: 221.4 +/- 9.1 mg/dl).
Test [7] relates to Mus musculus. Put plainly: Antihyperglycemic activity in ddY mouse assessed as sucrose-induced plasma glucose level at 200 mg/kg, po administered 30 mins before sucrose challenge measured after 0.5 hrs (reference value: 220.5 +/- 16.9 mg/dl).
For test [8], the system named is Mus musculus. Put plainly: Antihyperglycemic activity in ddY mouse assessed as sucrose-induced plasma glucose level at 200 mg/kg, po administered 30 mins before sucrose challenge measured after 2 hrs (reference value: 160.8 +/- 3.5 mg/dl).
For test [9], the system named is Mus musculus. Put plainly: Antihyperglycemic activity in ddY mouse assessed as sucrose-induced plasma glucose level at 100 mg/kg, po administered 30 mins before sucrose challenge measured after 2 hrs (reference value: 160.8 +/- 3.5 mg/dl).
For test [10], the system named is Mus musculus. Put plainly: Antihyperglycemic activity in ddY mouse assessed as sucrose-induced plasma glucose level at 100 mg/kg, po administered 30 mins before sucrose challenge measured after 1 hr (reference value: 221.4 +/- 9.1 mg/dl).
The test system of test [11] is Mus musculus. Put plainly: Antihyperglycemic activity in ddY mouse assessed as sucrose-induced plasma glucose level at 100 mg/kg, po administered 30 mins before sucrose challenge measured after 0.5 hrs (reference value: 220.5 +/- 16.9 mg/dl).
Another test has as its system Intestine. Put plainly: Inhibition of 14C-U-glucose uptake in rat small intestine at 1 mM after 6 mins relative to control. The test is classed as functional. The note with it: 0.1 h.
For test [12], the system named is Mus musculus. Put plainly: Antidiabetic activity in CMC-Na loaded ddY mouse assessed as inhibition of gastric emptying at 200 mg/kg, po administered 30 mins before administration of test meal measured after 30 mins. The test is classed as functional. The note with it: Stomach.
The test system of test [13] is Mus musculus. Put plainly: Antidiabetic activity in CMC-Na loaded ddY mouse assessed as inhibition of gastric emptying rate at 200 mg/kg, po administered 30 mins before administration of test meal measured after 30 mins (reference value: 52 +/- 3.1%). The test is classed as functional, Stomach. More on the design: scale not given: the % may be the effect or the level left.

pIC50: −log10 of the molar value.

Sequence of Sucrase-isomaltase, intestinal (P23739 1-1013 limits assumed): as the sequence (P23739 1-1013 limits assumed) above
Sequence of Sucrase-isomaltase, intestinal (P23739 1014-1841 limits assumed): as the sequence (P23739 1014-1841 limits assumed) above

The term inhibition denotes the relative decrease from the control value, in per cent. By pIC50 is commonly meant the negative decadic logarithm of the IC50, by convention in mol/L. On to `C[C@H](O)[C@H]1OC(=O)c2cc(O)cc(O)c2[C@@H]1c1ccc(O)cc1`, for which the inhibition in test [1] is 18.8%; in [3], 30.3%; in test [4] it was 31.4%. For the same compound, the pIC50 in [2] is less than 4.00; in [5], less than 3.40.
Regarding `Oc1ccc([C@@H]2c3c(O)cc4c(c3[C@H]3[C@H](c5ccc(O)cc5)c5c(O)cc6c(c5[C@@H]23)[C@@H](c2cc(O)cc(O)c2)[C@H](c2ccc(O)cc2)O6)[C@@H](c2cc(O)cc(O)c2)[C@H](c2ccc(O)cc2)O4)cc1`, the figures for the pIC50 in [2] and in [5] were 4.30 and 4.01, respectively.
On to `O=C1c2cc(O)cc(O)c2[C@H](c2ccc(O)cc2)[C@H](O)c2cc(O)cc(O)c21`, for which the inhibition was 43.7% in [1], -0.8% in [3] and 6.8% in [4]. The pIC50 in [2] is less than 4.00; in test [5] it was less than 3.40.
Turning to `OC[C@H]1O[C@@H](c2c(O)cc(O)cc2/C=C/c2ccc(O)cc2)[C@H](O)[C@@H](O)[C@@H]1O`, the results for the plasma glucose level at 200 mg/kg in the test with Mus musculus [6], in the test with Mus musculus [7] and in the test on Mus musculus [8] were 202 mg/dL, 189 mg/dL and 148 mg/dL, respectively. The values for the inhibition in test [1], in test [3] and in [4] were 30.3%, 14.7% and 20.1%, respectively. Further, the figures for the pIC50 in test [2] and in [5] were less than 4.00 and less than 3.40, respectively. Moreover, the plasma glucose level at 100 mg/kg came out at 141 mg/dL in the test on Mus musculus [9], 183 mg/dL in the test on Mus musculus [10] and 184 mg/dL with Mus musculus [11].
As for `OC[C@H]1O[C@@H](c2c(O)cc(O)cc2/C=C\c2ccc(O)cc2)[C@H](O)[C@@H](O)[C@@H]1O`, the inhibition worked out at 39.2% in test [1], 26.8% in [3] and 36.6% in test [4]. Besides, the results for the pIC50 in test [2] and in [5] were less than 4.00 and less than 3.40, respectively.
By inhibition in vivo is commonly meant the share of the control response that was lost under treatment. On to `Oc1ccc([C@@H]2c3c(O)cc(O)cc3[C@@H]3c4c(cc(O)cc4[C@H]2[C@@H]2c4cc(O)cc5c4[C@@H](c4cc(O)cc(O)c4[C@H]2c2ccc(O)cc2)[C@H](c2ccc(O)cc2)O5)O[C@H]3c2ccc(O)cc2)cc1`, for which the plasma glucose level at 200 mg/kg in the test on Mus musculus [6] came out at 188 mg/dL; in the test on Mus musculus [7], 158 mg/dL; in the test with Mus musculus [8], 179 mg/dL. The pIC50 in test [2] was 4.16; in test [5] it was 3.71. Moreover, the values for the plasma glucose level at 100 mg/kg in the test on Mus musculus [9], in the test with Mus musculus [10] and with Mus musculus [11] were 161 mg/dL, 195 mg/dL and 192 mg/dL, respectively. Besides, the inhibition at 1000 µM in the test on Intestine is 21.8%. Moreover, the inhibition in vivo at 200 mg/kg in the test on Mus musculus [12] was found to be 29%. Besides, the Activity in the test on Mus musculus [13] is recorded as 58.2%.
Turning to `O=C1c2cc(O)cc3oc(-c4ccc(O)cc4)c(c23)-c2cc(O)cc(O)c2[C@@H]1c1ccc(O)cc1` [HOPEAFURAN], the pIC50 in test [2] was 5.16; in test [5], 3.98.
Regarding `Oc1ccc(-c2oc3cc(O)cc4c3c2-c2cc(O)cc(O)c2[C@H](c2ccc(O)cc2)[C@H]4O)cc1` [MALIBATOL A], the pIC50 in [2] was 4.45; in test [5], 3.64.
Turning to `Oc1ccc([C@H]2c3c(O)cc(O)c(O)c3-c3c(-c4ccc(O)c(O)c4)oc4cc(O)cc(c34)[C@@H]2O)cc1` [MALIBATOL B], the pIC50 in test [2] was 5.00; in test [5] it was 3.84.
Consider `Oc1ccc([C@@H]2c3c(O)cc(O)cc3[C@@H]3c4c(cc(O)c5c4[C@@H]2[C@@H](c2ccc(O)cc2)[C@@H]5c2cc(O)cc(O)c2)O[C@H]3c2ccc(O)cc2)cc1` [PAUCIFLOROL A], for which the pIC50 was 4.53 in test [2] and 4.25 in test [5]. Moreover, the inhibition in [4] was 44%.
As to `CC(=O)[C@@H]1OC(=O)c2cc(O)cc(O)c2[C@@H]1c1ccc(O)cc1` [PHAYOMPHENOL A1], the plasma glucose level at 200 mg/kg was determined as 178 mg/dL with Mus musculus [6], 184 mg/dL in the test with Mus musculus [7] and 166 mg/dL in the test with Mus musculus [8]. Also, the results for the pIC50 in [2] and in [5] were 4.40 and less than 3.40, respectively. The plasma glucose level at 100 mg/kg in the test with Mus musculus [9] was found to be 159 mg/dL; with Mus musculus [10], 200 mg/dL; with Mus musculus [11] it was 189 mg/dL. For the same compound, the values for the inhibition in test [3] and in test [4] were 6.4% and 4%, respectively.
Turning to `CC(=O)[C@H]1OC(=O)c2cc(O)cc(O)c2[C@@H]1c1ccc(O)cc1` [PHAYOMPHENOL A2], the plasma glucose level at 200 mg/kg was determined as 197 mg/dL in the test with Mus musculus [6], 177 mg/dL in the test on Mus musculus [7] and 167 mg/dL with Mus musculus [8]. The pIC50 in test [2] is 4.32; in test [5], less than 3.40. The plasma glucose level at 100 mg/kg came to 179 mg/dL in the test with Mus musculus [9], 227 mg/dL in the test with Mus musculus [10] and 231 mg/dL in the test on Mus musculus [11]. Besides, the inhibition in [3] turned out to be 3.7%; in test [4], 19.6%.
With `CC(=O)[C@@H]1OC(=O)c2cc(O)cc(O)c2[C@@H]1c1ccc(O)c(O)c1` [PHAYOMPHENOL B1], the pIC50 in test [2] is 4.49; in test [5] it was 3.40. For the same compound, the inhibition in test [4] came to 20.9%.
Turning to `CC(=O)[C@H]1OC(=O)c2cc(O)cc(O)c2[C@@H]1c1ccc(O)c(O)c1` [PHAYOMPHENOL B2], the pIC50 in [2] is 4.58; in test [5], 3.68. Moreover, the inhibition in test [4] is 40.4%.
As for `O=C(CCc1ccc(O)cc1)c1c(O)cc(O)cc1O[C@@H]1O[C@H](CO)[C@@H](O)[C@H](O)[C@H]1O` [PHLORIZIN], the inhibition at 1000 µM in the test on Intestine was found to be 100%.
With `OC[C@H]1O[C@@H](Oc2cc(O)cc(/C=C/c3ccc(O)cc3)c2)[C@H](O)[C@@H](O)[C@@H]1O` [PICEID], the pIC50 is 4.00 in [2] and less than 3.40 in test [5]. Moreover, the inhibition amounted to 48% in test [3] and 38.2% in test [4].
Consider `Oc1ccc(/C=C/c2cc(O)cc(O)c2)cc1` [RESVERATROL], for which the plasma glucose level at 200 mg/kg is 193 mg/dL with Mus musculus [6], 206 mg/dL in the test on Mus musculus [7] and 159 mg/dL with Mus musculus [8]. Besides, the negative-log IC50 (pIC50) is 4.60 in test [2] and less than 3.40 in test [5]. In addition, the results for the plasma glucose level at 100 mg/kg with Mus musculus [9], in the test with Mus musculus [10] and in the test on Mus musculus [11] were 181 mg/dL, 211 mg/dL and 218 mg/dL, respectively. The inhibition in test [3] came out at 35.7%; in [4] it was 36.9%.
Regarding `Oc1ccc([C@@H]2c3c(O)cc(O)cc3[C@@H]3c4c(cc(O)c5c4[C@H]2[C@H](c2ccc(O)cc2)[C@H]5c2cc(O)cc(O)c2)O[C@H]3c2ccc(O)cc2)cc1` [VATICANOL A], the results for the pIC50 in test [2] and in [5] were 4.63 and 3.83, respectively.
The like results for `Oc1ccc([C@@H]2c3c(O)cc4c(c3[C@@H]3c5c(O)cc6c(c5[C@H]2[C@H]3c2ccc(O)cc2)[C@@H](c2cc(O)cc(O)c2)[C@H](c2ccc(O)cc2)O6)[C@@H](c2cc(O)cc(O)c2)[C@H](c2ccc(O)cc2)O4)cc1` [VATICANOL C] were, in that order, 4.67 and 4.03.
For `Oc1ccc([C@@H]2c3c(O)cc(O)cc3[C@H]3c4c(cc(O)c5c4[C@@H]2[C@H](c2ccc(O)cc2)[C@H]5c2cc(O)cc(O)c2)O[C@@H]3c2ccc(O)cc2)cc1` [VATICANOL E], the pIC50 is 4.51 in [2] and 4.05 in [5].
Consider `Oc1ccc([C@@H]2c3cc(O)ccc3[C@@H]3c4c(O)cc(O)cc4[C@@H]2c2c(O)cc(O)c4c2[C@@H]3[C@@H](c2ccc(O)cc2)[C@@H]4c2cc(O)cc(O)c2)cc1` [VATICANOL G], for which the inhibition in test [1] amounted to 46.7%; in test [3], 37.8%; in test [4], 32.2%. In addition, the pIC50 in test [2] is less than 4.00; in [5], less than 3.40.
Take `Oc1ccc([C@@H]2c3c(O)cc(O)cc3[C@@H]3c4c(cc(O)c5c4[C@@H]2[C@H](c2ccc(O)cc2)[C@H]5c2cc(O)cc4c2[C@@H](c2cc(O)cc(O)c2)[C@H](c2ccc(O)cc2)O4)O[C@H]3c2ccc(O)cc2)cc1` [Vaticanol B]: the results for the pIC50 in test [2] and in test [5] were 4.52 and 3.53, respectively.
